Literature values, collected in patent publication US8333997B2, “Compositions for sustained release of nitric oxide, methods of preparing same and uses thereof” (priority 2006, dated 2012).

Assays:
[1] = system: Methicillin sensitive and Methicillin resistant species; conditions: against Methicillin sensitive and Methicillin resistant species
S. aureus = conditions: dose-response study on S. aureus

SMILES	efficacious concentration ranges [1] [mg/L]	concentration at which NO exhibits potent antimicrobial properties (S. aureus)
C/C(=C\C(=O)OCCCCCCCCC(=O)O)C[C@@H]1OC[C@H](C[C@@H]2O[C@H]2[C@@H](C)[C@H](C)O)[C@@H](O)[C@H]1O [Mupirocin]	25 to 256	
[N]=O [NO, nitric oxide]		above 160 ppm
